In patent publication US11292811B2, “Long-acting prodrugs of entecavir, preparing methods and uses thereof” (priority 2017, dated 2022):

Tests used:
[1] = Pharmacokinetic test in the body of beagle (blood concentration of Entecavir after i.m. injection of prodrug suspension); assay type: in vivo
Experimental: Three conventional male beagles were used in the test, and they were forbidden to eat for 12 hours before administering drugs, and drank water freely meanwhile. Entecavir-5′-docosanoate (prepared in Example 4), Entecavir-5′-ursodesoxycholate (prepared in Example 5) and entecavir-5′-stearoylamidobutanoate (prepared in Example 19) were used to prepare a suspension, and were intramuscularly injected in a dosage of 0.508 mg/kg, 0.552 mg/kg, and 0.533 mg/kg respectively.
Treatment of blood plasma sample: 100 μL of blood plasma sample was added to 20 μL of methanol-water (V:V, 1:1) and 20 μL of interior label (2 μg/mL apigenin), and mixed through vortex. 200 μL of methanol was added and mixed through vortex, followed by being centrifuged under a centrifugal force of 14,000 g for 30 minutes. 10 μL of supernate was collected for analysis. The results are shown in Table 1, Table 2, and Table 3, as well as FIG. 1, FIG. 2 and FIG. 3.

[2] = cited from earlier work

**Q.** Which “Release of injectable suspension after intramuscular injection” value (“Release of injectable suspension” for short) ([1]; dog, in vivo) does the source give for C=C1[C@H](COC(=O)CCCNC(=O)CCCCCCCCCCCCCCCCC)[C@@H](O)C[C@@H]1n1cnc2c(=O)[nH]c(N)nc21 [Entecavir-5′-stearoylamidobutanoate] here?
**A.** Its value is “released sustainably and steady”.

**Q.** Which “Release of injectable suspension” value ([1]; beagle, intramuscularly injected suspension) does the source give for C=C1[C@H](COC(=O)CC[C@@H](C)[C@H]2CC[C@H]3[C@@H]4[C@@H](O)C[C@@H]5C[C@H](O)CC[C@]5(C)[C@H]4CC[C@]23C)[C@@H](O)C[C@@H]1n1cnc2c(=O)[nH]c(N)nc21 [Entecavir-5′-ursodesoxycholate] here?
**A.** Its value is “released sustainably and steady”.

**Q.** Which “Cmax decrease when administered with food” value [2] does the source give for C=C1[C@H](CO)[C@@H](O)C[C@@H]1n1cnc2c(=O)[nH]c(N)nc21 [Entecavir] here?
**A.** Its value is 44-46%.

**Q.** What about the “Decrease of area under the curve (AUC) of the drug-time curve when administered with food” value [2] of the same molecule?
**A.** Its value is 18-20%.

**Q.** With Entecavir-5′-docosanoate as the molecule, how does the “Release of injectable suspension” value ([1]; dog, in vivo) read?
**A.** The value was “released sustainably and steady”.
